Results taken from US4691046A, “Butanedioic acid mono [(2-dimethylamino] ethyl ester)succinate” (Institut Organicheskoi Khimii Ordena Lenina I Ordena …, priority 1986, dated 1987).

Legend:
[1] = Survival of mice on acute cooling; type: in vivo
Description: The activity of the compound according to the present invention was studied in experiments on animals. The effectivemess of the compound according to the present invention was studied for resistance against an acute cold effect in comparison with conventional preparations such as butanedioic acid mono[(2-dimethylamino)ethyl ester] and sodium succinate.
The experiments were carried out on male mice (tetrahybdrids) with a body mass of 18-20 g which were placed into a cold chamber at a temperature of -15t to -17° C. in separate plastic cages slightly limiting their activity. […] The preparations were administered intraperiotoneally 1 hour before the cold effect the control animals were administered with a physiological solution.

Succinatedehydrogenase = assay: Activity of succinatedehydrogenase in myocardium upon low-temperature treatment; type: in vivo, mice; conditions: 2.5 hours at -14° C.; 80 mg/kg (invention) or 64 mg/kg (ester); control 72.3 ± 1.6
Description: (§2) The preparations were administered one hour before the standard low-temperature treatment (-14° C.) in doses of 80 mg/kg of the compound according to the present invention and 64 mg/kg of the prior art compound-butanedioic acid mono[(2-dimethylamino)-ethyl ester].

Isocitratedehydrogenase = assay: Activity of isocitratedehydrogenase in myocardium upon low-temperature treatment; type: in vivo, mice; conditions: 2.5 hours at -14° C.; 80 mg/kg (invention) or 64 mg/kg (ester); control 49.5 ± 1.2
Description: as §2

Glutamatedehydrogenase = assay: Activity of glutamatedehydrogenase in myocardium upon low-temperature treatment; type: in vivo, mice; conditions: 2.5 hours at -14° C.; 80 mg/kg (invention) or 64 mg/kg (ester); control 68.8 ± 1.5
Description: as §2

Pyruvatedehydrogenase = assay: Activity of pyruvatedehydrogenase in myocardium upon low-temperature treatment; type: in vivo, mice; conditions: 2.5 hours at -14° C.; 80 mg/kg (invention) or 64 mg/kg (ester); control 56.6 ± 1.1
Description: as §2

NADH2 --dehydrogenase = assay: Activity of NADH2-dehydrogenase in myocardium upon low-temperature treatment; type: in vivo, mice; conditions: 2.5 hours at -14° C.; 80 mg/kg (invention) or 64 mg/kg (ester); control 69.8 ± 1.5
Description: as §2

[2] = tested on: NAD-Ph--H2 --dehydrogenase; assay: Activity of NAD-Ph-H2-dehydrogenase in myocardium upon low-temperature treatment; type: in vivo, mice; conditions: 2.5 hours at -14° C.; 80 mg/kg (invention) or 64 mg/kg (ester); control 72.1 ± 1.4
Description: as §2

[3] = tested on: Glucose-6-phosphatedehydrogenase; assay: Activity of glucose-6-phosphatedehydrogenase in myocardium upon low-temperature treatment; type: in vivo, mice; conditions: 2.5 hours at -14° C.; 80 mg/kg (invention) or 64 mg/kg (ester); control 57.3 ± 1.3
Description: as §2

[4] = Maximum duration of mice lifespan upon testing cold treatment (Le Blanc adaptation procedure); type: in vivo
Description: (§1) To elucidate the effect of the compound according to the present invention on the adaptation phenomenon, experiments on male mice with a body mass of 18-20 g were carried out in conformity with the Le Blanc procedure according to which the mice were placed into a cold chamber (at -17° C.) for 10 minutes ever hour over the period of 9-10 hours. After one day the maximum lifespan of the mice at -17° C. was assessed along with the content of glucose in blood and of glycogen in organs upon a predetermined cold treatment (2.5 hours a -14° C.). The compound according to the present invention and butanedioic acid mono[(2-dimethylamino)-ethyl ester] (in doses of 80 and 64 mg/kg respectively) were introduced immediately after a series of short-time cold effects. In a number of experiments the compound according to the present invention was administered 1 hour prior to the testing (2.5 h) cold effect.

[5] = Blood glucose and organ glycogen upon predetermined (2.5 h) cold treatment (adaptation experiment); type: in vivo, mice; conditions: 2.5 h at -14° C.; for Glycogen, heart: control 1.7 ± 0.2; for Glycogen, liver: control 6.7 ± 0.4; for Blood glucose: control 37 ± 6
Description: as §1

[6] = Stresso-protective activity, motion stress in slowly rotating drum for 48 hours; type: in vivo, rats; conditions: 48 h motion stress
Description: In evaluation of the stresso-protective activity of the compound according to the present invention as a model use was made of a procedure of depriving rats of sleep, meals and water in a slowly rotating drum (at the speed of 0.2 km/h).
The experiments were carried out on 42 nondescript male rats. In parallel experiments the antistress activity of butanedioic acid mono[(2-dimethylamino)ethyl ester] was studied; as the reference prepartion use was made of the prior art tranquilizer--diazepam which was used in the experiments for this very indication.
4 groups of animals were tested in parallel. Groups I and II were placed for 48 hours into a slowly rotating drum, groups III and IV were under normal conditions and were deprived only of meals and water. The compound according to the present invention and butanedioic acid mono[(2-dimethylamino)ethyl ester] were administered intraperitoneally in the dose of 10 mg/kg four times (2 times a day) in the volume of 2.5 ml/kg under the conditions of motion stress (Group I of the animals) and under normal conditions (Group III of animals). The control animals--Group II (active control) and Group IV (passive control) were given a physiological solution. The efficiency of the compound according to the present invention, of butanedioic acid mono[(2-dimethylamino)ethyl ester] and of diazepam was estimated on the basis of a set of characteristics showing the functional activity of the central nervous system, physical fitness and development of basic symptoms of the stress-syndrome.
The residence of control rats in a slowly-rotating drum over 48 hours results in a noticeable deterioration of all the studied characteristics, especially those of higher nervous activity (learning) and development of stress-syndrome. The state of control animals was characterized by lowering of the overall behavioural activity as determined by the "open-field" test (37±15%) with reference to the passive control level, by a reduction in the speed of development of a conventional avoiding response in an aqueous labyrinth (58±15%), by an increase in the number of mistakes during the teaching time (175±25%), lowering of the ultimate physical endurance as determined by the swimming-with-load test (the load is equal to 10% by mass of the body (70±17%), adrenal hypertrophy (146±16%), thymus atrophy (49±9%) and formation of ulcers on the stomach mucous membrane (5.25±1.0%).

[7] = Biochemical substrates in mice upon preset (2.5 hours) low-temperature treatment; conditions: 2.5 hours at -14° C.
Description: as §2

[8] = adaptation + preparation 1 hour before the testing effect
[9] = adaptation + preparation immediately after adaptation, 80 mg/kg (invention) or 64 mg/kg (ester)

## CN(C)CCOC(=O)CCC(=O)O [Compound of this invention, butanedioic acid mono[(2-dimethylamino)ethyl ester]succinate]
[1]; 1 hour of cold at -15 to -17° C., i.p. 1 hour before, 80 mg/kg (invention), 64 mg/kg (ester), 17 mg/kg (sodium succinate)
  Survival, %, 1 hour: 100%
[1]; 2 hours of cold at -15 to -17° C., i.p. 1 hour before, 80 mg/kg (invention), 64 mg/kg (ester), 17 mg/kg (sodium succinate)
  Survival, %, 2 hours: 100%
[1]; 3 hours of cold at -15 to -17° C., i.p. 1 hour before, 80 mg/kg (invention), 64 mg/kg (ester), 17 mg/kg (sodium succinate)
  Survival, %, 3 hours: 100%
[1]; 4 hours of cold at -15 to -17° C., i.p. 1 hour before, 80 mg/kg (invention), 64 mg/kg (ester), 17 mg/kg (sodium succinate)
  Survival, %, 4 hours: 90%
[1]; 5 hours of cold at -15 to -17° C., i.p. 1 hour before, 80 mg/kg (invention), 64 mg/kg (ester), 17 mg/kg (sodium succinate)
  Survival, %, 5 hours: 70%
[1]; 6 hours of cold at -15 to -17° C., i.p. 1 hour before, 80 mg/kg (invention), 64 mg/kg (ester), 17 mg/kg (sodium succinate)
  Survival, %, 6 hours: 70%
[1]; doses above 300 mg/kg
  protective effect on survival at high dose: less pronounced
Succinatedehydrogenase
  Activity of succinatedehydrogenase in myocardium: 90.2 ± 1.8 relative units
Isocitratedehydrogenase
  Activity of isocitratedehydrogenase in myocardium: 60.4 ± 1.6 relative units
Glutamatedehydrogenase
  Activity of glutamatedehydrogenase in myocardium: 78.3 ± 1.7 relative units
Pyruvatedehydrogenase
  Activity of pyruvatedehydrogenase in myocardium: 68.9 ± 1.3 relative units
NADH2 --dehydrogenase
  Activity of NADH2-dehydrogenase in myocardium: 73.4 ± 2.0 relative units
[2]
  Activity of NAD-Ph-H2-dehydrogenase in myocardium: 85.9 ± 1.7 relative units
[3]
  Activity of glucose-6-phosphatedehydrogenase in myocardium: 67.4 ± 1.5 relative units
[4]; no adaptation, intact animals 3.4 ± 0.4
  Lifespan in hours (at -17° C.), preparation without adaptation: 7.8 ± 0.3 h
[4]; with preliminary adaptation, 80 mg/kg (invention) or 64 mg/kg (ester), adaptation alone 6.0 ± 0.3, listed as compound of the present invention
  Lifespan in hours (at -17° C.), preliminary adaptation + preparation: 10.3 ± 0.6 h
[5]; [8]
  Glycogen, heart: 2.6 ± 0.4 mg/g
  Glycogen, liver: 11.7 ± 2.4 mg/g
  Blood glucose: 78 ± 6 mg. %
[5]; [9]
  Glycogen, heart: 2.9 ± 0.2 mg/g
  Glycogen, liver: 18.2 ± 2.1 mg/g
  Blood glucose: 88 ± 2 mg. %
[6]
  formation of ulcers on the stomach mucous membrane: 4.8±1.5%
[6]; in words
  general behavioural activity compared with diazepam: substantially higher general behavioural activity
[6]; 10 mg/kg i.p. four times (invention, ester), control 0.95 ± 0.18, listed as compound of the present invention, 10 mg/kg
  Weight coefficient of thymus: 1.25 g/kg of the initial body mass
[6]; 10 mg/kg i.p. four times (invention, ester), control 1.246 ± 0.028, listed as compound of the present invention, 10 mg/kg
  Weight coefficient of adrenal glands: 1.83 g/kg of the initial body mass
[6]; 10 mg/kg i.p. four times (invention, ester), control 4.75 ± 0.5, listed as compound of the present invention, 10 mg/kg
  Number of attempts till reaching the learning criterion (water labyrinth): 2.75
[6]; 10 mg/kg i.p. four times (invention, ester), control 5.25 ± 1.0, listed as compound of the present invention, 10 mg/kg
  Number of ulcers on the stomach mucous membrane: 2.5
[6]; 10 mg/kg i.p. four times (invention, ester), control 244 ± 26, listed as compound of the present invention, 10 mg/kg
  Duration of swimming: 499 s
[6]; open-field test, stressed control 37±15% of passive control
  total behavioural activity: 85±10%
[6]; stressed control 58±15% (avoiding response, aqueous labyrinth)
  higher nervous activity (protection): 100±9%
[6]; swimming-with-load test, stressed control 70±17%
  physical endurance: 143±28%
[7]; 1 hour after 80 mg/kg (invention) or 64 mg/kg (ester), control 8.1 ± 0.6, intact 35.2 ± 4.5
  Liver glycogen: 9.8 ± 1.2 mg/kg
[7]; 1 hour after 80 mg/kg (invention) or 64 mg/kg (ester), control 42 ± 4, intact 79 ± 3
  Blood glucose: 80 ± 4 mg. %
[7]; myocardium, 1 hour after 80 mg/kg (invention) or 64 mg/kg (ester), control 1.2 ± 0.08, intact 3.7 ± 0.3
  Creatine phosphate: 2.3 ± 0.1 μm/g
[7]; myocardium, 1 hour after 80 mg/kg, control 0.45 ± 0.01, intact 0.51 ± 0.03
  Adenosine monophosphate: 0.32 ± 0.02 μm/g
[7]; myocardium, 1 hour after 80 mg/kg, control 0.49 ± 0.02, intact 0.78 ± 0.03
  Adenosine diphosphate: 0.86 ± 0.04 μm/g
[7]; myocardium, 1 hour after 80 mg/kg, control 1.5 ± 0.1, intact 2.2 ± 0.3
  Adenosine triphosphoric acid: 1.9 ± 0.2 μm/g
